Test results published in the NIST ThermoML archive (doi:10.1016/j.tca.2010.05.016).
± gives the expanded uncertainty stated by the source.

Assay: wn = mass fraction of the nth substance listed
Conditions: 101 kPa, Liquid; for speed of sound: Vibrating Tube; for mass density: Vibrating tube method

O=C[C@H](O)[C@@H](O)[C@H](O)[C@H](O)CO [D-glucose] + O
Conditions | mass density, 288.15 K [kg/m3] | mass density, 293.15 K [kg/m3] | mass density, 298.15 K [kg/m3] | mass density, 303.15 K [kg/m3] | mass density, 308.15 K [kg/m3] | speed of sound, 288.15 K [m/s] | speed of sound, 293.15 K [m/s] | speed of sound, 298.15 K [m/s] | speed of sound, 303.15 K [m/s] | speed of sound, 308.15 K [m/s]
w1 = 0.0206 | – | 1006.08 ± 0.047 | 1004.86 ± 0.047 | 1003.41 ± 0.046 | 1001.75 ± 0.045 | 1475.6 ± 3.3 | – | – | 1517.3 ± 3.3 | 1527 ± 3.3
w1 = 0.0396 | 1014.53 ± 0.061 | 1013.52 ± 0.06 | 1012.25 ± 0.06 | 1010.76 ± 0.059 | – | 1482.2 ± 3.3 | 1497.7 ± 3.3 | 1511.3 ± 3.3 | 1523 ± 3.3 | 1533 ± 3.3
w1 = 0.0591 | 1022.21 ± 0.079 | 1021.13 ± 0.079 | 1019.81 ± 0.078 | 1018.27 ± 0.077 | 1016.54 ± 0.076 | 1490 ± 3.3 | 1505.1 ± 3.3 | 1518.4 ± 3.3 | 1529.9 ± 3.3 | 1539.5 ± 3.3
